According to ChEMBL document CHEMBL1129284, “N-methyl-D-aspartic acid receptor agonists: resolution, absolute stereochemistry, and pharmacology of the enantiomers of 2-amino-2-(3-hydroxy-5-methyl-4-isoxazolyl)acetic acid” (J Med Chem, 1996):

Key:
[1] = species on record: Rattus norvegicus; assay: Effective dose against rat cortical slice cells using Electrophysiological experiment.; assay type: functional; settings: read-out: ED50 (the source's name)
[2] = molecular target: Glutamate receptor ionotropic, kainate; assay: Inhibitory activity against Ionotropic glutamate receptor kainate using [3H]-kainic acid as radioligand; assay type: protein-complex assay
[3] = molecular target: Glutamate NMDA receptor; assay: Inhibitory activity against N-methyl-D-aspartate glutamate receptor using [3H]CPP as radioligand; assay type: protein-complex assay
[4] = molecular target: Glutamate receptor ionotropic, AMPA (Rattus norvegicus, UniProt P19490+P19491+P19492+P19493); assay: Inhibitory activity against Ionotropic glutamate receptor AMPA using [3H]AMPA as radioligand; assay type: protein-complex assay

SMILES	EC50 [1] [µM]	IC50 [2] [µM]	IC50 [3] [µM]	IC50 [4] [µM]
Cc1onc(O)c1C[C@H](N)C(=O)O [(S)-AMPA]	580	–	–	–
NC(C(=O)O)c1cc(=O)[nH]o1 (stereo not given)	3.8	> 100	> 100	76
Cc1o[nH]c(=O)c1C(N)C(=O)O (stereo not given)	12	> 100	–	> 100
CN[C@H](CC(=O)O)C(=O)O [N-METHYL-D-ASPARTIC ACID (NMDA)]	15	> 100	35	> 100

Further lines, results first:

EC50 [1] [µM]	IC50 [2] [µM]	IC50 [3] [µM]	IC50 [4] [µM]	SMILES
75	> 100	61	> 100	Cc1onc(O)c1[C@H](N)C(=O)O
7.3	> 100	3.7	72	Cc1onc(O)c1[C@@H](N)C(=O)O
